Laboratory results reported in paper PMC10142028, “Influence of Molecular Structure and Physicochemical Properties of Immunosuppressive Drugs on Micelle Formulation Characteristics and Cutaneous Delivery” (Pharmaceutics, 2023).
In brackets after ≈: the same amount, converted by molar mass. Entries after “also recorded” stand apart in the source; their conditions may differ. Read-outs that look alike come from different tables or passages of the source.

What was measured:
skin (porcine or human) = system: skin (porcine or human); parameters: method as in PMID 16176283, PMID 14698574; conditions: independent of skin origin (porcine or human) and formulation composition; cited from earlier work
[1] = Drug content determination of micelle formulations (UHPLC-UV); format: physicochemical; conditions: for Drug content of Formulation 5: Formulation 5, corresponds to approximately 2.3 mg/mL; for Water solubility reached by polymeric micelle formulation: corresponding to approximately 4.5 mg/mL
Method: Micelle formulations were prepared using the thin-film hydration method. […] The acetone was slowly removed by rotary evaporation (Büchi Vac V-513 Rotavapor®; Flawil, Switzerland) until the formation of a uniform thin-film, which was left under the hood overnight and then hydrated with 4 mL of ultrapure water. After equilibration for 2 h, the micelle solution was centrifuged at 10,000 rpm for 15 min (Eppendorf Centrifuge 5804; Hamburg, Germany) to remove excess drug, and the supernatant was carefully collected.
The micelle formulation was optimized in order to reach a high drug loading. […] The formulation with the highest drug content, which satisfied reproducibility and stability criteria, was chosen for the subsequent in vitro release and skin delivery studies. Drug loading was determined by UHPLC-UV.
The amount of drug loaded in the micelles was quantified by UHPLC-UV. To ensure the complete destruction of the micelles and the release of encapsulated drug, samples were diluted in ACN prior to analysis. (1) Drug contentmgdrug/mLformulation=mass of drug in the formulationmg/volume of the formulationmL (2) Drug loadingmgdrug/gpolymer=drug in the formulationmg mL^−1/copolymer in the formulationg mL^−1 (3) Incorporation efficiency%=mass of drug incorporated in micellesmg/mass of drug introducedmg×100

[2] = source not given; cited from earlier work
Porcine ear skin [3] = assay: Skin delivery in vitro under infinite dose conditions and cutaneous biodistribution (Franz diffusion cells); conditions: micelle solution 0.2%, 12 h; for Drug deposition in skin regions (comparison): porcine skin; for Permeation across the skin (concentration, under the limit of quantification): receptor phase
Method: (§1) Porcine ear skin was used for skin delivery studies and was supplied by a local abattoir (CARRE; Rolle, CH). Briefly, skin samples were processed with a Zimmer air dermatome (Münsingen, Switzerland) to obtain pieces with a thickness of ∼800 µm. Hair was removed carefully from the skin surface using clippers. Circular disks of 30 mm were then punched out (Berg & Schmid HK 500; Urdorf, Switzerland) and stored at −20 °C until use, for a maximum period of 3 months.
(§2) Porcine skin samples were mounted in Franz diffusion cells (Milian SA; Meyrin, Switzerland) with a formulation contact area of 2 cm^2. In the donor compartment, the optimal micelle solution 0.2% was applied under infinite dose conditions (500 µL/cm^2) during 12 h. The receptor compartment was filled with 10 mL of phosphate buffered saline at pH 7.4 containing 1% BSA. The receiver phase was stirred at 250 rpm and maintained at 32 °C throughout the experiment. […] After the experiment, 1 mL of this phase was withdrawn to quantify drug permeation. Samples were diluted in ACN to precipitate BSA. After centrifugation at 5000 rpm at 4 °C during 15 min, the permeation samples were analysed by UHPLC-MS/MS. Each skin sample was carefully cleaned with a cotton swab and a wash solution to remove the residual formulation from skin surface.
(§3) At the end of the experiment, a small area, 0.8 cm^2, was punched out from the 2 cm^2 skin samples. These skin discs were snap-frozen in isopentane cooled by liquid nitrogen, followed by cryotoming (Thermo Scientific CryoStarTM NX70; Reinach, Switzerland) to obtain two lamellae with a thickness of 20 µm and 19 lamellae with a thickness of 40 μm. […] Drug deposited in each lamella was extracted in 300 µL of ACN overnight with continuous stirring at room temperature. The extraction samples were centrifuged at 5000 rpm for 10 min and diluted prior to UHPLC-MS/MS analysis.

[4] = Stability of the micelle solution after storage at 4 °C for 5 months; format: physicochemical; conditions: Formulation 6 (target 5 mg/mL), followed for 5 months
Method: Stability of the micelle solution was evaluated after storage at 4 °C for 5 months. Drug content and micelle size were determined at a series of time points (day 1, and then after 1, 2, 3, 4, and 5 months).

skin proteins = system: skin proteins; parameters: method as in PMID 18524871; conditions: compared to TAC; cited from earlier work
[5] = Drug solubility in water and in aqueous solution of TPGS; format: physicochemical; conditions: for Improvement of drug water solubility by addition of 50 mg/mL TPGS: TPGS 50 mg/mL solution vs water; for solubility at 24 h: thermodynamic from solid; for Aqueous solubility: in words, measured experimentally
Method: The solutions were kept at room temperature during a 24 h period of stirring. The samples were then centrifuged and the supernatant was collected and diluted in ACN prior to a UHPLC-MS/MS analysis. All the samples were prepared in triplicate.

Porcine ear skin [6] = conditions: pig, 12 h, 0.2 %, pH 7.4
Method: as §1, §2, §3

[7] = aqueous solution of TPGS (50 mg/mL), aqueous with cosolvent or surfactant or cyclodextrin, Drug solubility at TPGS concentration (33 mM or 50 mg/mL), room temperature, 24 h
[8] = aqueous solution of TPGS (50 mg/mL), aqueous with cosolvent or surfactant or cyclodextrin, Solubility on simple addition of the drug in the aqueous solution of TPGS, TPGS 50 mg/mL
[9] = water, water, room temperature, 24 h stirring, read-out: Drug solubility in water

Row | Compound | Permeation across the skin (comparison) (skin (porcine or human)) | Drug content of Formulation 5 [1] | Water solubility reached by polymeric micelle formulation [1] | Ionizable [2] | Drug deposition in skin regions (comparison) (Porcine ear skin [3]) | Permeation across the skin (concentration, under the limit of quantification) (Porcine ear skin [3]) | Stability of Formulation 6 in terms of drug content [4] | Affinity/binding to skin components (comparison) (skin proteins) | Improvement of drug water solubility by addition of 50 mg/mL TPGS [5] | solubility at 24 h [5, 7] | solubility at 24 h [5, 8] | Aqueous solubility [5] | solubility at 24 h [5, 9] | Permeation across the skin (concentration, under the limit of quantification) (Porcine ear skin [6]) | Solubility on simple addition of the drug in the aqueous solution of TPGS ([5]; TPGS 50 mg/mL)
1 | CC[C@@H]1/C=C(\C)C[C@H](C)C[C@H](OC)[C@H]2O[C@@](O)(C(=O)C(=O)N3CCCC[C@H]3C(=O)O[C@H](/C(C)=C/[C@@H]3CC[C@H](Cl)[C@H](OC)C3)[C@H](C)[C@@H](O)CC1=O)[C@H](C)C[C@@H]2OC [PIM, pimecrolimus] | lower than TAC | 2.8 mM | 5600 µM | No | high percentage of PIM was delivered in the stratum corneum; also recorded: higher in the viable epidermis in comparison to SIR and TAC; also recorded: significantly higher in the upper region of the skin (20–180 µm) | < 3 ng/mL | remained stable during the 5 months | stronger affinity with the components of the upper layers of the skin compared to TAC; also recorded: higher capacity-binding to other skin proteins | 1943 fold | 330 ± 31.2 µM (≈ 268 µg/mL) | 300 µM (≈ 243 µg/mL) | Poor | 0.17 ± 0.02 µM (≈ 0.138 µg/mL) |  | 
2 | CO[C@H]1C[C@@H]2CC[C@@H](C)[C@@](O)(O2)C(=O)C(=O)N2CCCC[C@H]2C(=O)O[C@H]([C@H](C)C[C@@H]2CC[C@@H](O)[C@H](OC)C2)CC(=O)[C@H](C)/C=C(\C)[C@@H](O)[C@@H](OC)C(=O)[C@H](C)C[C@H](C)/C=C/C=C/C=C/1C [SIR, sirolimus] |  | 2.5 mM | 4900 µM | No |  |  | became unstable after 4 months |  | 147 fold | 1210 ± 124 µM (≈ 1110 µg/mL) |  | Poor | 8.24 ± 0.22 µM (≈ 7.53 µg/mL) | < 3 ng/mL | 1200 µM
3 | C=CC[C@@H]1/C=C(\C)C[C@H](C)C[C@H](OC)[C@H]2O[C@@](O)(C(=O)C(=O)N3CCCC[C@H]3C(=O)O[C@H](/C(C)=C/[C@@H]3CC[C@@H](O)[C@H](OC)C3)[C@H](C)[C@@H](O)CC1=O)[C@H](C)C[C@@H]2OC [TAC, tacrolimus] |  | 2.9 mM | 5600 µM | No | large percentage of skin deposition in the dermis | < 3 ng/mL | remained stable during the 5 months |  | 3184 fold | 637 ± 73.5 µM (≈ 512 µg/mL) | 600 µM (≈ 482 µg/mL) | Poor | 0.2 ± 0.05 µM (≈ 0.161 µg/mL) |  | 
